Experimental data published in US20130137767A1, “Methods and Compositions for Treating Arthritis with Docosahexaenoic Acid” (DSM IP ASSETS B.V., priority 2010, published 2013).

Tests used:
Assay type in all cases: in vivo, Male DBA/1O1aHsd mice
[1] = tested on: Collagen-Induced Arthritis (CIA); assay: CIA-EE (Example 1): paw, knee and six-joint histopathology; settings: day 45, vs OA-EE placebo, FIG. 4
From the text: Male DBA/1O1aHsd mice (3.5-4 weeks of age) were randomized by weight and enrolled in the study after a three day quarantine in which animals were fed the AlN-93G diet with a modified base fat: 1 part flax seed oil (flax), 9 parts hydrogenated coconut oil (HCOC) and 21 parts high-oleic safflower oil (HO-SAFF). 15 animals were enrolled per study group, with the exception of the No Disease control that had 4 animals. Study groups consisted of:
(§1) The appropriate ethyl esters were blended into the base diet to provide approximately 2500 and 5000 mg/kg polyunsaturated fatty acid (PUFA) per day. The human equivalent doses (HED) were approximately 12 g/day and 22 g/day, respectively. The 2500 mg/kg EE diets contained the following fat blend: 1 part flax, 12 parts HCOC and 23 parts HO-SAFF. The 5000 mg/kg EE diets contained a fat blend consisting of: 1 part flax, 5 parts HCOC and 20 parts HO-SAFF. All study diets provided a total of 7% fat. Animals were fed study diets for approximately 30 days prior to the first collagen injection at day 0 and remained on the diets until study termination (day 45). Animals in the No Disease control and Dexamethasone groups were fed the diet containing OA-EE. Following a second collagen injection on day 21, arthritis severity was scored daily. Blood samples were collected at day 21 and day 45. Joints, 6 per an animal, were collected for histology and pathology on day 45.
Placebo-treated diseased animals had histopathology changes, consistent with those seen in type II collagen induced arthritis, in most joints, with scores ranging from normal to severe. Microscopic alteration included infiltration of synovium and periarticular tissue with neutrophils and mononuclear inflammatory cells (inflammation), marginal zone pannus and bone resorption and cartilage damage (proteoglycan loss, chondrocyte death and collagen matrix destruction). Four-paw, knee and joint parameters were assigned a quantitative score 0=normal, 1=minimal, 2=mild, 3=moderate, 4=marked, 5=severe and a total score was determined per animal.

[2] = CIA-EE (Example 1): serum phospholipid fatty acid levels by FAME analysis
Description: as §1
Serum phospholipid fatty acid levels were determined by FAME analysis (FIG. 5). Treatment with DHA-EE elevated serum DHA levels 3-4 fold, as compared the OA-EE (placebo) control, whereas DPAn6-EE elevated serum DPAn6 20-35 fold. Serum EPA levels were elevated when dosed with the DHA/EPA-EE blend 8-15 fold and 4-7 fold when dosed with DHA-EE, as compared to the OA-EE (placebo) control. […]

[3] = tested on: Collagen-Induced Arthritis (CIA); assay: Collagen-Induced Arthritis, EE vs. TG (Example 2): clinical arthritis severity and incidence; settings: for incidence of disease: day 45
From the text: The anti-arthritic activity of DHA, DHA/DPAn6 and DHA/EPA, administered as EE or triglyceride oils (TG), in a chronic mouse model of inflammation, Collagen-Induced Arthritis (CIA), was studied. Methods used in this study were similar to those described in Example 1 (CIA-EE Study). Study groups consisted of: Male DBA/1O1aHsd mice were enrolled, quarantined, and feed study diets following the protocols described in Example 1 (CIA-EE Study). EE and TG oils were blended into the base diet to provide 2500 mg/kg PUFA per day (HED approximately 12 g/day). A single dose of PUFA per day (HED approximately 5 g/day). The 1000 mg/kg DHA-EE dose was equivalent to the amount of DHA administered in the DHA/EPA-EE blend. The fat blend the 2500 mg/kg EE diets consisted of approximately: 1 part flax, 12 parts HCOC and 23 parts HO-SAFF; 1000 mg/kg EE diet: 1 part flax, 12 parts HCOC and 32 parts HO-SAFF; 2500 mg/kg DHASCO® oil diet: 1 part flax, 8 parts HCOC, 17 parts HO-SAFF and 15 parts soybean oil; 2500 mg/kg DHA-S oil diet: 1 part flax, 5 parts HCOC, 16 parts HO-SAFF and 6 parts soybean oil. 2500 mg/kg DHA/EPA (Nordic Naturals fish oil) diet: 1 part flax, 21 parts HCOC, 18 parts HO-SAFF and 13 parts soybean oil. The monounsaturate control animals received a fat blend of 1 part flax, 7 parts HCOC and 25 parts HO-SAFF. All study diets provided a total of 7% fat. Animals in the No Disease control and Dexamethasone groups were fed the diet containing OA-EE. Mice received collagen injections on day 0 and day 21, as described previously. Blood samples were collected at day 21 and day 45. At day 45, joints were collected for histology and pathology. Data was analyzed and compared by one-way ANOVA using the Bonferroni post-test to compare treatment groups to respective placebo control and to make comparisons between treatment groups (GraphPad, Prism, Version 4.0). Effects were considered to be statistically significant at p<0.05. Arthritis severity was assessed from day 18 to 45; a score of 0 represented an animal devoid of clinical arthritis symptoms and a score of 5 represented advanced clinical arthritis. Scores from 0-5 (most severe) were assigned to each digit on the fore and hind limbs based on erythema, swelling and mobility the mean arthritis severity per animal was determined.

SMILES: CC/C=C\C/C=C\C/C=C\C/C=C\C/C=C\C/C=C\CCC(=O)OCC [DHA-EE]
- knee histopathology parameters ([1]; 2500 mg/kg): significantly reduced
- paw histopathology parameters (inflammation, pannus, cartilage damage, bone damage) ([1]; 2500 mg/kg): significantly reduced
- six-joint mean histopathology parameters ([1]; 2500 mg/kg): significantly reduced
- paw histopathology parameters (inflammation, pannus, cartilage damage, bone damage) ([1]; 5000 mg/kg): reduced paw histopathology scores
- six-joint mean histopathology parameters ([1]; 5000 mg/kg): significantly reduced
- serum ARA levels, decrease vs OA-EE (placebo) control ([2]; 2500 mg/kg): approximately 90%
- serum ARA levels, decrease vs OA-EE (placebo) control ([2]; 5000 mg/kg): approximately 90%
- arthritis severity score as area under the curve (AUC) ([3]; 1000 mg/kg, days 18-45, vs OA-EE (placebo) control, FIG. 8B): significantly reduced arthritis
- arthritis severity, comparison between treatment groups ([3]; 2500 mg/kg PUFA, Dexamethasone 0.1 mg/kg): more potent than DHA-EPA-EE
- arthritis severity score as area under the curve (AUC) ([3]; 2500 mg/kg PUFA, days 18-45, vs monounsaturated or OA-EE (placebo) control, FIG. 8A/B): significantly reduced arthritis
- incidence of disease ([3]; 1000 mg/kg, FIG. 9B): 73%
- incidence of disease ([3]; 2500 mg/kg PUFA, FIG. 9A/B): 60%
- arthritis severity score ([3]; days 18-45, FIG. 7A/B, dose not stated): reduced arthritis severity
